Experimental findings from US11639372B1, “Zinc-charged peptides for the treatment of cancer and alzheimer's disease” (priority 2021, dated 2023) are described below.

Numbered stars: 1 amine (or outer) side, 2 acyl side, 3 side chain; on linkers, the order of the positions; unused ones are H or OH. Bridge positions count the residues as written; N and C are the ends. Square brackets hold non-standard residues; d marks the D form. Ends that are not written are not given here. Peptide text beside a SMILES is read from it. I, II: the chains in the order shown. Actinocin(9to1) = Cc1c2oc3c(C)ccc(C(=O)[*:1])c3nc-2c(C(=O)[*:2])c(N)c1=O; NMeV = CN[C@H](C(=O)O)C(C)C; Sar = CNCC(=O)O

Data set [1] has as its system HT-29 colon cancer cells. The experiment in a line: apoptosis in HT-29 cells, combination with chemotherapy drugs. The note with it: for interaction of chemotherapy drug with the zinc-charged peptide: drug 6 μg per ml 12 hours, then zinc-charged 4H 4 μM for 6 hours. In kind it is cell-based. As to the method: To test this, HT-29 colon cancer cells were pre-incubated with various chemotherapy drugs at 6 μg per ml for 12 hours, then zinc-charged 4H at 4 μM was added for an additional 6 hours. Most chemotherapy drugs take up to 48 hours to see substantial apoptosis, and as such, the cells were pre-incubated with chemotherapy drugs first. The chemotherapy drugs tested included actinomycin (“A”), carmustine (“C”), docorubicin (“Dox”), genistin (“G”), 5-FU, and Tarceva.

Data set [2] can be described thus: absorption by gastrointestinal tract (earlier work). It is filed as in vivo. The settings on record: before enzymatic digestion with papain.
For data set [3], the system named is various cancer cell lines. The experiment in a line: apoptosis-inducing activity on cancer cell lines (earlier work). In kind it is cell-based. The note with it: in vitro cell culture. The text has this:
Cow milk is known to contain numerous proteins and other beneficial compounds for humans.
Since alpha-lactalbumin is the major milk protein present in milk, this protein was first tested to determine if the bioactive peptides were derived from alpha-Lactalbumin. Purified alpha-lactalbumin was therefore treated with EDTA and zinc acetate.

Data set [4] is described as follows: water solubility of the peptides. In kind it is physicochemical. The note with it: uncharged peptide, last amino acid changed.
Data set [5] deals with Calu-1 lung cancer cells. The experiment in a line: glycolysis (lactate) inhibition in cell lysate, Calu-1. In kind it is cell-based. As to the method: (§1) The zinc-charged peptides ability to inhibit glycolysis in other cancer cell lines, such as lung cancer, compared to their normal counterparts was also tested.
Data set [6] relates to HT-29 colon cancer cells. As to the kind of experiment: glycolysis (lactate) inhibition in cell lysate, HT-29. It is filed as cell-based.
Data set [7] has as its system HT-29 cancer cells. As to the kind of experiment: biochemical analysis of HT-29 cell lysate (lactate, ATP, G-6-P). It is filed as cell-based. On the procedure:
To determine the mechanism of induction of apoptosis to HT-29 cancer cells by the zinc-charged peptides, a low concentration (1 μM) of zinc-charged 4H was incubated with HT-29 cancer cells, followed by biochemical analysis of the cell lysate of the HT-29 cancer cells.
Furthermore, the decreased lactate was associated with a lower ATP level and a lower Glucose-6-phosphate (G-6-P) level in HT-29 cells.

Data set [8] can be described thus: glycolysis and ATP in brain and muscle of normal mice fed zinc-charged 4H. It is filed as in vivo. The note with it: 0.5 mg per mouse per day, 5 days, oral. On the procedure:
To further study this observed phenomena in vivo, normal mice were fed with the zinc-charged 4H for five days, and the glycolysis of normal brain cells were studied. FIG. 9 depicts the results of this study. For this study, two groups of mice having four mice per group were compared, one being the control and the other being fed 0.5 mg of zinc-charged 4H per mouse per day for 5 days orally. After 5 days, brain and muscle tissue was collected, homogenized, and assayed for glycolysis rate.
In mice fed with 0.5 mg of zinc-charged 4H for 5 days, the brain glycolysis of these mice was enhanced by 44%.

The target of data set [9] is T1, hexokinase II (Homo sapiens, UniProt P52789).
T1 sequence (P52789 1-917): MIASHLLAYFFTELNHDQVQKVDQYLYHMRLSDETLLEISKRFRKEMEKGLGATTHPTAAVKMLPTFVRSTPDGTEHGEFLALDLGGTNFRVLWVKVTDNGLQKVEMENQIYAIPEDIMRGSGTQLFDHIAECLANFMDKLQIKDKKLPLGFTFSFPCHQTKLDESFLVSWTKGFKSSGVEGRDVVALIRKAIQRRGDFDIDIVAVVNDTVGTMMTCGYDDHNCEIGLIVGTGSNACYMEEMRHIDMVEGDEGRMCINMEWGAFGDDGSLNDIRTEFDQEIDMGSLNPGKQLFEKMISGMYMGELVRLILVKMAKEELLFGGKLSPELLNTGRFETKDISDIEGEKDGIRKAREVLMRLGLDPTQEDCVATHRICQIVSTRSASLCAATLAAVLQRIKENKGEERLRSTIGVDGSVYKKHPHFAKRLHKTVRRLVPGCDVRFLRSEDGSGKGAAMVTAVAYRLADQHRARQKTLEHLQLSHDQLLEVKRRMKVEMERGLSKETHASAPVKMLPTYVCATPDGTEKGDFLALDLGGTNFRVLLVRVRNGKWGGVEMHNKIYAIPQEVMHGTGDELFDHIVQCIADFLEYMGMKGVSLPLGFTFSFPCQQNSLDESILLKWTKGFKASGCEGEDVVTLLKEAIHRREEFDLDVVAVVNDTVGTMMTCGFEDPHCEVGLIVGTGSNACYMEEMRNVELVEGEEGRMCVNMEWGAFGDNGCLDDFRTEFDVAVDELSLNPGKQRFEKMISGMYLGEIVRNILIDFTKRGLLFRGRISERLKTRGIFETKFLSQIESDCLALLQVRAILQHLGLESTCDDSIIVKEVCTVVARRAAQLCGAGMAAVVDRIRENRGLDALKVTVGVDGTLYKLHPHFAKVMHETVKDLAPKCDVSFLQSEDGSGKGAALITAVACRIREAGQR
As to the kind of experiment: in vitro hexokinase II assay. It is filed as biochemical. As to the method:
To test confirm that the zinc-charged peptides inhibit hexokinase II resulting in the inhibition of glycolysis, an in vitro hexokinase II assay was performed. FIG. 7 depicts the results of the in vitro hexokinase II assay. In this test, it was observed that hexokinase II was inhibited by zinc-charged 4H in a dose-dependent manner. […] These findings confirm that the zinc-charged peptides inhibit glycolysis at the hexokinase II enzyme level.

The test system of data set [10] is normal WI38 lung cells. The experiment in a line: glycolysis (lactate) inhibition in cell lysate, WI38. In kind it is cell-based. On the procedure:
as §1

Data set [11] addresses T1, hexokinase II. As to the kind of experiment: subcellular hexokinase II activity in HT-29 cells. The settings on record: HT-29, 1 μM, 5 hours. It is filed as cell-based. As to the method:
FIGS. 14-16 depicts the testing results validating that the zinc-charged peptides inhibit each of these three bioenergetic pathways. FIG. 14 depicts the subcellular hexokinase II activity in mitochondria, cytosol, and microsome to determine whether the zinc-charged peptides inhibit the hexokinase II activity in mitochondria. For this test, HT-29 cancer cells were incubated with zinc-charged 4H at 1 μM for 5 hours. After incubation, sub-cellular fractions including cytosol, microsome, and mitochondria were prepared and the hexokinase II activity on these sub-cellular fractions were tested.

Data set [12] has as its system normal colon cell line CCD18Co. The experiment in a line: glycolysis (lactate) inhibition in cell lysate, CCD18Co. In kind it is cell-based.

On to `O=NN(CCCl)C(=O)NCCCl` [carmustine], for which the “interaction of chemotherapy drug with the zinc-charged peptide” value (from here on “interaction of chemotherapy drug”) in data set [1] is reported as “synergistic”.
Same read-out and setting: to `O=c1c(-c2ccc(O)cc2)coc2cc(O[C@@H]3O[C@H](CO)[C@@H](O)[C@H](O)[C@H]3O)cc(O)c12` [genistin] belongs “synergistic”.
On to “zinc-bound alpha-lactalbumin: purified alpha-lactalbumin treated with EDTA and zinc acetate”, for which the “absorption by gastrointestinal tract” value in data set [2] was “unable to be absorbed”. Moreover, in [3], the “apoptosis-inducing activity on various cancer cell lines” value is on record as “contain apoptosis-inducing activity”.
For the molecule “EYGLFQISNKK [4H3, E-Y-G-L-F-Q-I-S-N-K-K]”, in [4], the “water solubility compared with 4H” value is “more water-soluble”.
`O=c1[nH]cc(F)c(=O)[nH]1` [5-FU]: in data set [1], the “interaction of chemotherapy drug” value is listed as “synergistic”.
As to `COc1cccc2c1C(=O)c1c(O)c3c(c(O)c1C2=O)C[C@@](O)(C(=O)CO)C[C@@H]3O[C@H]1C[C@H](N)[C@H](O)[C@H](C)O1` [doxorubicin], the “interaction of chemotherapy drug” value in [1] is “synergistic”.
For the molecule “zinc-charged 4H: peptide E-Y-G-L-F-Q-I-S-N-K-L (SEQ. ID NO. 1) charged with zinc ions by EDTA then zinc acetate treatment (EYGLFQISNKL; also: charged with zinc ions)”, the inhibition of glycolysis in data set [5] was 11.1%; in data set [6], “up to 34.7%”; in data set [10], 0%; in data set [12], 10.5%. In addition, the “lactate lower than control cells” value in data set [7] (1 μM, HT-29 cell lysate) turned out to be 81.4%. Further, in [7] (HT-29, after 6 hours of incubation), the “reduction of intracellular G-6-P level” value is reported as 39.6%. For the same molecule, the “percentage of apoptosis in HT-29 cells when added to chemotherapy drugs” value in data set [1] (zinc-charged 4H 4 μM, 6 hours after 12 hours drug pre-incubation) is given as “significantly increased”. Moreover, the “enhancement of brain glycolysis” value in data set [8] is reported as 44%. In addition, the “increase in brain ATP level” value in [8] was found to be 31.4%. Moreover, the “increase of muscle glycolysis” value in data set [8] stood at 15%. In addition, the entries for the “hexokinase II inhibition” value in data set [9] (5 μM), in [9] (10 μM) and in data set [9] (20 μM) were 28.6%, 79.1% and 94.6%, respectively. Also, in data set [11], the “inhibition of mitochondria associated hexokinase II activity” value was 53%.
As to `Cc1c2oc3c(C)ccc(C(=O)N[C@@H]4C(=O)N[C@H](C(C)C)C(=O)N5CCC[C@H]5C(=O)N(C)CC(=O)N(C)[C@@H](C(C)C)C(=O)O[C@@H]4C)c3nc-2c(C(=O)N[C@@H]2C(=O)N[C@H](C(C)C)C(=O)N3CCC[C@H]3C(=O)N(C)CC(=O)N(C)[C@@H](C(C)C)C(=O)O[C@@H]2C)c(N)c1=O` [actinomycin] (I: T[dV]P[Sar][NMeV] / II: T[dV]P[Sar][NMeV]; ester I:1-I:C, II:1-II:C; linker I:N-II:N via Actinocin(9to1)), the “interaction of chemotherapy drug” value in data set [1] is “synergistic”.
